The results in this text go back to patent US20250221920A1, “Antioxidant Compositions” (THE BOOTS COMPANY PLC, priority 2022, published 2025).

A short description of this experiment: Total Antioxidant Capacity (TAC) assay, Cell Biolabs kit, copper ion reagent, absorbance at 490 nm. The class given is biochemical. Conditions: triplicate. The method, then:
Total antioxidant capacity (TAC) was determined using a kit (Cell Biolabs, Inc) as follows; the test samples were diluted in water and a buffer to reach a final antioxidant agent to buffer ratio ranging from 1:1 to 1:1,000,000. 20 ul of test sample or control (ascorbic acid or green tea) were added to the wells of 96 well plate, followed by 180 μL of 1X Reaction Buffer (provided with the kit). The absorbance of the reaction mix in each well was measured at 490 nm to get an initial reading. 50 μL of the 1X Copper Ion Reagent (provided with the kit) were added to each well to initiate the reaction. The reaction was allowed to carry on for 5 minutes on an orbital shaker and 50 μL of 1X Stop Solution (provided with the kit) added to each well to terminate the reaction. The colour change was assessed using a plate reader at 490 nm.
The stronger the colour change at the end of the reaction, the higher the spectrophotometric value, and the higher the antioxidant capacity of the antioxidant agents.
21 antioxidant compounds were tested in triplicate at antioxidant: buffer ratios ranging from 1:1 to 1:1,000,000.
The actual TAC of each of these compounds was calculated using the TAC assay described above, and compared with the predicted values to determine the % difference in TAC.

For Dimethylmethylmethoxy chromanol, the “Total Antioxidant Capacity (TAC)” value is, setting by setting: (Antioxidant:Buffer 1:1 (concentration 1)) 1.839; (Antioxidant:Buffer 1:10 (concentration 0.1)) 1.807; (Antioxidant:Buffer 1:100 (concentration 0.01)) 1.824.
